# “Also recorded” adds a separate entry of the source. Like-named read-outs stand apart in the source and are kept apart here. Marks after values point to notes of the source that are not given here.
# Key:
# [1] = test system: G93A SOD1 B6SJL hybrid (G93A) model; test: Body weight and body composition (lean mass, fat mass; NMR scans) in G93A SOD1 transgenic mice; type: in vivo; conditions: for Average Δ body weight / Average Δ fat mass / Average Δ lean mass: per day alive after disease onset
# From the text: (§1) Transgenic mice over-expressing a high copy number (25 copies) of mutated human SOD1 gene with a G93A point mutation, i.e., B6SJL-TgN [SOD1-G93A]1 Gur (G1H-G93A transgenic mice, JR2726; Hemizygote) (Gurney M E, et al., Science, 264, 1772-1775, 1994) (“G93A SOD1 B6SJL hybrid (G93A) model”), were used.
# […] […] There were 16 mice in the S-oxprenolol group.
# The primary endpoint was survival, humanely defined as the ability of the animal to right itself in 30 seconds after being laid on its side. Secondary endpoints were body weight, body composition, spontaneous activity and food intake. Body weight of the animals was assessed weekly until onset of disease. Additionally, body composition (fat mass and lean body mass) was assessed using NMR scans (EchoMRI-100, Echo Medical Systems, Houston, USA) every 4 days. After onset of disease, body weight and body composition were assessed every two days until the end of the study. All personal handling the animals was strictly blinded to the randomized treatment allocation.
# To study the effect of S-oxprenolol on body weight, body weight was monitored over time.
# To study the effect of the test compounds on lean body mass, lean mass was determined at the end of the study.
# To study the effect of the test compounds on fat mass, the fat mass were determined at the end of the study.
# To study the effect of S-oxprenolol on body weight, body weight was monitored over time. […] The number of all mice in the population is indicated as “n” in at the bottom of FIGS. 20A-20C.
# To study the effect of the test compounds on lean body mass, lean mass was determined at the end of the study. […] The number of all mice in the population is indicated as “n” in at the bottom of FIGS. 20D-20F.
# To study the effect of the test compounds on fat mass, the fat mass were determined at the end of the study. […] The number of all mice in the population is indicated as “n” in at the bottom of FIGS. 20G-20I.
# [2] = test system: G93A SOD1 B6SJL hybrid (G93A) model; conditions: for Heart / gastrocnemius: end of study;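 as to HR (hazard ratio) survival vs placebo, FIG. 2: dosing began after ALS onset in G93A SOD1 mice, with survival as the endpoint, defined humanely as the animal failing to regain upright posture within 30 s when placed sideways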;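 as to percent survival, comparison in words (FIGS. 2-4): dosing began after ALS onset in G93A SOD1 mice, with survival as the endpoint, defined humanely as the animal failing to regain upright posture within 30 s when placed sideways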
# Method: as §1
# To study the effect of the test compounds on skeletal muscle atrophy, the skeletal muscle mass were determined at the end of the study.
# The number of all mice in the population is indicated as “n” in at the bottom of FIGS. 21A-21C.
# The number of all mice in the population is indicated as “n” in at the bottom of FIGS. 20D-20F.
# The number of all mice in the population is indicated as “n” in at the bottom of FIGS. 21G-21I.
# [3] = test system: G93A SOD1 B6SJL hybrid (G93A) model;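 as to HR (hazard ratio) survival vs placebo, FIG. 2: dosing began after ALS onset in G93A SOD1 mice, with survival as the endpoint, defined humanely as the animal failing to regain upright posture within 30 s when placed sideways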;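 as to percent survival, comparison in words (FIGS. 2-4): dosing began after ALS onset in G93A SOD1 mice, with survival as the endpoint, defined humanely as the animal failing to regain upright posture within 30 s when placed sideways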
# From the text: To study the effect of S-oxprenolol on survival, survival was monitored over time.
# [4] = test system: G93A SOD1 B6SJL hybrid (G93A) model; test: Disease progression score (JAX SOP) in G93A SOD1 transgenic mice
# From the text: The disease progression score is based on the JAX SOP (Ludolph A C, Bendotti C, Blaugrund E, Hengerer B, Loffler J P, Martin J, Meininger V, Meyer T, Moussaoui S, Robberecht W, Scott S, Silani V, Van Den Berg L H (ENMC Group For The Establishment Of Guidelines For The Conduct Of Preclinical And Proof Of Concept Studies In ALS/MND Models). 2007, which is incorporated by reference).
# [5] = 10 mg/kg/day, S-pindolol 3 mg/kg/day
# [6] = 20 mg/kg/day vs. S-Oxprenolol (20)
smiles,measurement,setting,value
"C=CCOc1ccccc1OC[C@@H](O)CNC(C)C [S-oxprenolol, (S)-1-(2-(allyloxy)phenoxy)-3-(isopropylamino)propan-2-ol]","change in lean body mass, in words (FIG. 6)","[1]; 10 mg/kg/day, end of study",less change in lean body mass than those receiving a placebo
same,"change in fat mass per survival day after ALS onset, in words (FIG. 13)",[1]; [5],less change in fat mass than those receiving S-pindolol
same,"change in lean body mass per survival day after ALS onset, in words (FIG. 7)",[1]; [5],less change in lean body mass than those receiving S-pindolol
same,"change of body weight per survival day after ALS onset, in words (FIG. 5)",[1]; [5],body weight loss that was close to those administered S-pindolol; also recorded: less body weight loss than those in the placebo group
same,Wasting of lean mass reduced compared to placebo (FIG. 6),"[1]; 10 mg/kg/day, p=0.18",about 40%
same,Δ body weight,"[1]; all mice, 10 mg/kg/d",-5.4 ± 0.43 g
same,Δ fat mass,"[1]; all mice, 10 mg/kg/d",-1.26 ± 0.14 g
same,Δ lean mass,"[1]; all mice, 10 mg/kg/d",-3.31 ± 0.33 g
same,Average Δ body weight,"[1]; all mice, 10 mg/kg/d",-123 ± 11.6 mg/day
same,Average Δ fat mass,"[1]; all mice, 10 mg/kg/d",-29.4 ± 3.7 mg/day
same,Average Δ lean mass,"[1]; all mice, 10 mg/kg/d",-89.6 ± 9.1 mg/day
same,Δ body weight,"[1]; all mice, 20 mg/kg/d",-5.56 ± 0.47 g
same,Δ fat mass,"[1]; all mice, 20 mg/kg/d",-1.56 ± 0.18 g
same,Δ lean mass,"[1]; all mice, 20 mg/kg/d",-4.78 ± 0.41 g
same,Average Δ body weight,"[1]; all mice, 20 mg/kg/d",−99.4 ± 9.7^p=0.064 mg/day
same,Average Δ fat mass,"[1]; all mice, 20 mg/kg/d",-29.8 ± 3.6 mg/day
same,Average Δ lean mass,"[1]; all mice, 20 mg/kg/d",-93.3 ± 7.5 mg/day
same,"change in fat mass, in words (FIG. 12)","[1]; end of study, p>0.5",no effect on the loss of fat mass
same,Δ body weight,"[1]; female mice, 10 mg/kg/d",-4.51 ± 0.55 g
same,Δ fat mass,"[1]; female mice, 10 mg/kg/d",−1.17 ± 0.21^p=0.059 g
same,Δ lean mass,"[1]; female mice, 10 mg/kg/d",-3.99 ± 0.37 g
same,Average Δ body weight,"[1]; female mice, 10 mg/kg/d",-103.3 ± 16.1 mg/day
same,Average Δ fat mass,"[1]; female mice, 10 mg/kg/d",-25.9 ± 4.8 mg/day
same,Average Δ lean mass,"[1]; female mice, 10 mg/kg/d",-69.2 ± 10.8 mg/day
same,Δ body weight,"[1]; female mice, 20 mg/kg/d",-4.57 ± 0.55 g
same,Δ fat mass,"[1]; female mice, 20 mg/kg/d",-1.29 ± 0.17 g
same,Δ lean mass,"[1]; female mice, 20 mg/kg/d",-3.97 ± 0.49 g
same,Average Δ body weight,"[1]; female mice, 20 mg/kg/d",-82.0 ± 13.6 mg/day
same,Average Δ fat mass,"[1]; female mice, 20 mg/kg/d",−26.8 ± 4.4^+ mg/day
same,Average Δ lean mass,"[1]; female mice, 20 mg/kg/d",90.7 ± 10.9 mg/day
same,Δ body weight,"[1]; male mice, 10 mg/kg/d",-6.57 ± 0.57 g
same,Δ fat mass,"[1]; male mice, 10 mg/kg/d",-1.44 ± 0.19 g
same,Δ lean mass,"[1]; male mice, 10 mg/kg/d",-3.67 ± 0.49 g
same,Average Δ body weight,"[1]; male mice, 10 mg/kg/d",-150.3 ± 14.5 mg/day
same,Average Δ fat mass,"[1]; male mice, 10 mg/kg/d",-33.6 ± 5.7 mg/day
same,Average Δ lean mass,"[1]; male mice, 10 mg/kg/d",-115.1 ± 13.9 mg/day
same,Δ body weight,"[1]; male mice, 20 mg/kg/d",-6.36 ± 0.67 g
same,Δ fat mass,"[1]; male mice, 20 mg/kg/d",-1.78 ± 0.28 g
same,Δ lean mass,"[1]; male mice, 20 mg/kg/d",-5.34 ± 0.56 g
same,Average Δ body weight,"[1]; male mice, 20 mg/kg/d",-115.7 ± 12.6 mg/day
same,Average Δ fat mass,"[1]; male mice, 20 mg/kg/d",-32.1 ± 5.4 mg/day
same,Average Δ lean mass,"[1]; male mice, 20 mg/kg/d",-95.8 ± 10.6 mg/day
same,"gastrocnemius weight over days after onset, in words (FIG. 9)",[2]; 10 mg/kg/day,steady
same,"tibialis anterior muscle weight over days after onset, in words (FIG. 11)",[2]; 10 mg/kg/day,steady
same,"correlation R of tibialis anterior muscle weight with days after onset (=survival), FIG. 11","[2]; 10 mg/kg/day, p=0.72, placebo R: −0.67",0.15
same,"correlation R of gastrocnemius weight with days after onset (=survival), FIG. 9","[2]; 10 mg/kg/day, p=0.94, placebo R: −0.56",−0.03
same,BAT (brown adipose tissue),"[2]; all mice, 10 mg/kg/d",46.8 ± 3.5 mg
same,EDL (extensor digitorum longus),"[2]; all mice, 10 mg/kg/d",7.18 ± 0.34 mg
same,soleus,"[2]; all mice, 10 mg/kg/d",5.89 ± 0.35 mg
same,Heart,"[2]; all mice, 10 mg/kg/d",108.6 ± 5.8 mg
same,gastrocnemius,"[2]; all mice, 10 mg/kg/d",55.1 ± 4.0 mg
same,BAT (brown adipose tissue),"[2]; all mice, 20 mg/kg/d",43.7 ± 2.3 mg
same,EDL (extensor digitorum longus),"[2]; all mice, 20 mg/kg/d",7.791 ± 0.29*^+++ mg
same,soleus,"[2]; all mice, 20 mg/kg/d",6.42 ± 0.39 mg
same,Heart,"[2]; all mice, 20 mg/kg/d",104.1 ± 3.5 mg
same,gastrocnemius,"[2]; all mice, 20 mg/kg/d",50.1 ± 2.9 mg
same,BAT (brown adipose tissue),"[2]; female mice, 10 mg/kg/d",39.4 ± 4.2 mg
same,EDL (extensor digitorum longus),"[2]; female mice, 10 mg/kg/d",7.03 ± 0.51 mg
same,soleus,"[2]; female mice, 10 mg/kg/d",5.71 ± 0.48 mg
same,Heart,"[2]; female mice, 10 mg/kg/d",92.3 ± 3.2^p=0.064 mg
same,gastrocnemius,"[2]; female mice, 10 mg/kg/d",50.5 ± 4.0*^p=0.060 ^vs propanolol mg
same,BAT (brown adipose tissue),"[2]; female mice, 20 mg/kg/d",37.1 ± 2.9 mg
same,EDL (extensor digitorum longus),"[2]; female mice, 20 mg/kg/d",7.29 ± 0.42*^$ mg
same,soleus,"[2]; female mice, 20 mg/kg/d",6.15 ± 0.30 mg
same,Heart,"[2]; female mice, 20 mg/kg/d",92.8 ± 3.0 mg
same,gastrocnemius,"[2]; female mice, 20 mg/kg/d",46.2 ± 3.9 mg
same,BAT (brown adipose tissue),"[2]; male mice, 10 mg/kg/d",53.2 ± 5.0 mg
same,EDL (extensor digitorum longus),"[2]; male mice, 10 mg/kg/d",7.28 ± 0.47 mg
same,soleus,"[2]; male mice, 10 mg/kg/d",6.04 ± 0.53 mg
same,Heart,"[2]; male mice, 10 mg/kg/d",122.6 ± 8.8 mg
same,gastrocnemius,"[2]; male mice, 10 mg/kg/d",59.1 ± 6.6 mg
same,BAT (brown adipose tissue),"[2]; male mice, 20 mg/kg/d",46.5 ± 3.0 mg
same,EDL (extensor digitorum longus),"[2]; male mice, 20 mg/kg/d",8.15 ± 0.39^$$$ mg
same,soleus,"[2]; male mice, 20 mg/kg/d",6.58 ± 0.61 mg
same,Heart,"[2]; male mice, 20 mg/kg/d",112.4 ± 4.5 mg
same,gastrocnemius,"[2]; male mice, 20 mg/kg/d",53.1 ± 4.3 mg
same,"percent survival, comparison in words (FIGS. 2-4)",[3]; 10 mg/kg/day,longer survival than those in the placebo group; also recorded: significantly superior to either placebo or S-pindolol at its preferred dose; also recorded: significantly superior to either placebo or the other compounds
same,"HR (hazard ratio) survival vs placebo, FIG. 2","[3]; 10 mg/kg/day, 95% CI: 0.171-0.88, p=0.0241",0.39
same,Median survival ratio vs placebo,"[3]; 10 mg/kg/day, 95% CI: 0.83-1.81",1.32
same,Median survival after onset of ALS symptoms,"[3]; 10 mg/kg/day, placebo 28 days",37 days
same,"survival, days after onset","[3]; 10 mg/kg/day, placebo 42 days",56 days
same,survival improved compared to placebo treated mice,"[3]; G93A mice, 10 mg/kg/day after onset of ALS",about 33%
same,"percent survival, comparison in words (FIG. 14)","[3]; all mice, 20 mg/kg/day",longer survival than other groups
same,HR survival (FIG. 14),"[3]; all mice, 10 mg/kg/day vs. placebo",0.71
same,HR survival (FIG. 14),"[3]; all mice, 20 mg/kg/day vs. placebo",0.45
same,"percent survival, comparison in words (FIG. 16)","[3]; female mice, 20 mg/kg/day",longer survival than other groups
same,HR survival (FIG. 16),"[3]; female mice, 10 mg/kg/day vs. placebo",0.96
same,HR survival (FIG. 16),"[3]; female mice, 20 mg/kg/day vs. placebo",0.53
same,"percent survival, comparison in words (FIG. 15)","[3]; male mice, 20 mg/kg/day",longer survival than other groups
same,HR survival (FIG. 15),"[3]; male mice, 10 mg/kg/day vs. placebo",0.46
same,HR survival (FIG. 15),"[3]; male mice, 20 mg/kg/day vs. placebo",0.39
same,HR Progression from score 1 to score 2 (FIG. 17),[4]; 10 mg/kg/day vs. placebo,0.56
same,HR Progression from score 1 to score 3 (FIG. 19),[4]; 10 mg/kg/day vs. placebo,0.73
same,HR Progression from score 2 to score 3 (FIG. 18),[4]; 10 mg/kg/day vs. placebo,1.07
same,HR Progression from score 1 to score 2 (FIG. 17),[4]; [6],1.17
same,HR Progression from score 1 to score 3 (FIG. 19),[4]; [6],1.48
same,HR Progression from score 2 to score 3 (FIG. 18),[4]; [6],1.20
same,HR Progression from score 1 to score 2 (FIG. 17),[4]; 20 mg/kg/day vs. placebo,0.51
same,HR Progression from score 1 to score 3 (FIG. 19),[4]; 20 mg/kg/day vs. placebo,0.47
same,HR Progression from score 2 to score 3 (FIG. 18),[4]; 20 mg/kg/day vs. placebo,0.64
